Data taken from patent publication US12448389B2, “BRM targeting compounds and associated methods of use” (Prelude Therapeutics Incorporated, priority 2020, dated 2025).

What was measured:
SMARCA2-HiBiT = target: T1, SMARCA2-HiBiT (Homo sapiens, UniProt P51531); assay: SMARCA2 HiBiT degradation assay in HeLa cells; type: cell-based; settings: 18 hours incubation; for DC50: read-out: HeLa_HiBit-SM2 DC50; for Dmax: HeLa, read-out: HeLa-HiBit-SM2 Dmax (%)
T1 construct: SMARCA2-HiBiT knock-in Hela monoclonal cell (CS302366); host or cells: HeLa monoclonal knock-in line (CRISPR HiBiT knock-in at the endogenous locus, heterozygous)
Summary of the method: (§1)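 HeLa monoclonal lines with heterozygous HiBiT knock-in were seeded at 2500 cells/well in EMEM with 10% FBS and treated with compound for 18 h at 37 °C. Remaining tagged protein was measured by Nano-Glo HiBiT lytic luminescence after 30–60 min at RT, and values came from curve fitting.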

SMARCA4-HiBiT = target: T2, SMARCA4-HiBiT (Homo sapiens, UniProt P51532); assay: SMARCA4 HiBiT degradation assay in HeLa cells; type: cell-based; settings: 18 hours incubation; for DC50: read-out: HeLa-HiBit-SM4 DC50; for Dmax: HeLa, read-out: HeLa-HiBit-SM4 Dmax (%)
T2 construct: SMARCA4-HiBiT knock-in Hela monoclonal cell (CS3023226); host or cells: HeLa monoclonal knock-in line (CRISPR HiBiT knock-in at the endogenous locus, heterozygous)
Summary of the method: as §1

T2 sequence (P51532 whole entry): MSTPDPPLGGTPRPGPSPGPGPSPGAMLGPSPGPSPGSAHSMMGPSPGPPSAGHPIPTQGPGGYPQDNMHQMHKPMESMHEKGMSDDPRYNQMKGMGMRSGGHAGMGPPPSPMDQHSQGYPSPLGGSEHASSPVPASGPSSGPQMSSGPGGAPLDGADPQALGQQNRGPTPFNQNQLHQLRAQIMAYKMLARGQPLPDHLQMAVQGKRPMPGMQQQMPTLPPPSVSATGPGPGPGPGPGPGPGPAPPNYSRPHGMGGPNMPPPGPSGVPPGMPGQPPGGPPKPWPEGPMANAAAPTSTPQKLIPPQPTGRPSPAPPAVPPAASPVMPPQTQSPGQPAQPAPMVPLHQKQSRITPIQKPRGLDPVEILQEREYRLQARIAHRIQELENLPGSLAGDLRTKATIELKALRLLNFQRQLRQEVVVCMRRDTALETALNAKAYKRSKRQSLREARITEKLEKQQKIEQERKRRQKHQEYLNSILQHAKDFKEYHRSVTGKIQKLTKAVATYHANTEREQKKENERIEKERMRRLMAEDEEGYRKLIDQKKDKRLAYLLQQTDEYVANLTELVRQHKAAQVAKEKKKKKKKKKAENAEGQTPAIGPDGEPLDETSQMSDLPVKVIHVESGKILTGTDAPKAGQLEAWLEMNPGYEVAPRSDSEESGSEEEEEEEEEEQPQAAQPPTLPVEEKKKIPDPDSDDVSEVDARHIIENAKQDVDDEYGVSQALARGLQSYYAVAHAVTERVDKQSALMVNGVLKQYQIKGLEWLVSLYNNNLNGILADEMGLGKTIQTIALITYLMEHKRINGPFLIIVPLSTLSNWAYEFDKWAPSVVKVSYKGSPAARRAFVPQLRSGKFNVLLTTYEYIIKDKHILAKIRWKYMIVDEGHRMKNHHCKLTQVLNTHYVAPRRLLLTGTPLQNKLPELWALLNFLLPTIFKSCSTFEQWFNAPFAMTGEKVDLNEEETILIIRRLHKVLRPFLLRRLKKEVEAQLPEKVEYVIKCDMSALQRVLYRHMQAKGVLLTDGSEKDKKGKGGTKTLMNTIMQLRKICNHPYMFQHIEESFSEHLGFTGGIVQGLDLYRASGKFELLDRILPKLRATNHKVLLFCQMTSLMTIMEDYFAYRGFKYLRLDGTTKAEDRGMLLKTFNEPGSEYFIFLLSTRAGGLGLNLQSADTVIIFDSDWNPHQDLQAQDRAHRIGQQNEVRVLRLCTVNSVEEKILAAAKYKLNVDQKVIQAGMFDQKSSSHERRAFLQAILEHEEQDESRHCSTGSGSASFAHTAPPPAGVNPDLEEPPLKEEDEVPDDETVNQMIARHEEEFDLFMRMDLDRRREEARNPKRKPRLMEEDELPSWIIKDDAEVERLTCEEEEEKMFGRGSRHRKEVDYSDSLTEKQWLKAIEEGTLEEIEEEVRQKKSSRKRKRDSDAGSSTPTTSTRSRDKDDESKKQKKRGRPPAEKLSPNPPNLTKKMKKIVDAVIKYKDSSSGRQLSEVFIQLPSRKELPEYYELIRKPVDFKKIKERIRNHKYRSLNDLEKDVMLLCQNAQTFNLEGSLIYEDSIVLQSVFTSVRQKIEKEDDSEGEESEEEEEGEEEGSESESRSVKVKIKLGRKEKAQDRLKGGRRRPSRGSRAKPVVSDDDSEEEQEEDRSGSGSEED
T1 sequence (P51531 whole entry): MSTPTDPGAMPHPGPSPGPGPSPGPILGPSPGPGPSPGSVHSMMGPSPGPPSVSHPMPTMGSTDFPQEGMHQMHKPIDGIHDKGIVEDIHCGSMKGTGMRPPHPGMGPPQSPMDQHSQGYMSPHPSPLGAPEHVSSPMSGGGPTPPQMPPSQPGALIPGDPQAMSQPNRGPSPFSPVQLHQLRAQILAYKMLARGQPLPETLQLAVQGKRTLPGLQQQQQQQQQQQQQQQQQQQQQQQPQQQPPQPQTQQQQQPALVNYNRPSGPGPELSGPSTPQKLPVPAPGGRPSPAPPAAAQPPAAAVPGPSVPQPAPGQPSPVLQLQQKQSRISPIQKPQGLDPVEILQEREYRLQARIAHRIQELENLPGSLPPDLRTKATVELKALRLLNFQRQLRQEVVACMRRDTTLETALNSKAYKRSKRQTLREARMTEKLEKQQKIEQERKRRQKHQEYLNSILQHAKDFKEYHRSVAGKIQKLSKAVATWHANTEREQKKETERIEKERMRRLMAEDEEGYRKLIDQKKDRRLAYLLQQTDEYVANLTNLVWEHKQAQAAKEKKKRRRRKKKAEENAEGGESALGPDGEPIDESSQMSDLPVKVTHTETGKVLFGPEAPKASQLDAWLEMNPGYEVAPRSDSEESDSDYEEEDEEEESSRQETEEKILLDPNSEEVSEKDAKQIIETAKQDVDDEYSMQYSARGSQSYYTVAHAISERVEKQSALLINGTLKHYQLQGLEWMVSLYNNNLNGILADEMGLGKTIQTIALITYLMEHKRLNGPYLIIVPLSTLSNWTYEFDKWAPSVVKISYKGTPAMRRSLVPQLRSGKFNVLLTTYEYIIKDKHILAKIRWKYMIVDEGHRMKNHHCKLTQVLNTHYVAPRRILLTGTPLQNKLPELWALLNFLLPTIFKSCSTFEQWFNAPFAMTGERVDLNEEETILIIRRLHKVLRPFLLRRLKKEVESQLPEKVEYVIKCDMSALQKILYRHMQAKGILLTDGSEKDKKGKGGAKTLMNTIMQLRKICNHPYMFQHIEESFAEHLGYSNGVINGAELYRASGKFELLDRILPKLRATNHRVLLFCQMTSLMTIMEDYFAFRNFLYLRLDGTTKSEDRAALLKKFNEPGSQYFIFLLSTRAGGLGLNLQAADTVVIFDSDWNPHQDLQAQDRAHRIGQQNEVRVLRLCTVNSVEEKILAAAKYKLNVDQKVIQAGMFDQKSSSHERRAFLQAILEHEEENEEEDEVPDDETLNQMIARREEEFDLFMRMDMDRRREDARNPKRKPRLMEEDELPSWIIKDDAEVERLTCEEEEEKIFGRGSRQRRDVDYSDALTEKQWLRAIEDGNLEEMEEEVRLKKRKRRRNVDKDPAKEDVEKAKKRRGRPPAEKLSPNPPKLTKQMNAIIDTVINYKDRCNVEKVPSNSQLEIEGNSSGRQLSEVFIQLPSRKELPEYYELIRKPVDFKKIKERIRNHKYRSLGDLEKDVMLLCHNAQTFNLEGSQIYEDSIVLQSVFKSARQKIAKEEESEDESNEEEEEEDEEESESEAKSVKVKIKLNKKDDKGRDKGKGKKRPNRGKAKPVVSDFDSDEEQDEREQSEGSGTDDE

Row | SMILES | DC50 (SMARCA2-HiBiT) [µM] | Dmax (SMARCA2-HiBiT) [%] | DC50 (SMARCA4-HiBiT) [µM] | Dmax (SMARCA4-HiBiT) [%] | HeLa-HiBit-SM4 Dmax (%) (SMARCA4-HiBiT)
1 | CC(C1CCN(CC2CCN(c3ccc4c(c3)C(=O)N(C3CCC(=O)NC3=O)C4=O)CC2)CC1)N1CCN2c3cc(-c4ccccc4O)nnc3NC[C@H]2C1 (stereo partly drawn) [Example 32, 2-(2,6-dioxopiperidin-3-yl)-5-(4-((4-(1-((S)-2-(2-hydroxyphenyl)-5,6,6a,7,9,10-hexahydro-8H-pyrazino[1′,2′:4,5]pyrazino[2,3-c]pyridazin-8-yl)ethyl)piperidin-1-yl)methyl)piperidin-1-yl)isoindoline-1,3-dione] | < 0.01 | > 85 | < 0.01 | > 85 | 
2 | O=C1CCC(N2C(=O)c3ccc(N4CCC(CN5CCN6c7cc(-c8ccccc8O)nnc7NC[C@H]6C5)CC4)cc3C2=O)C(=O)N1 (stereo partly drawn) [Example 157, 2-(2,6-dioxopiperidin-3-yl)-5-(4-(((S)-2-(2-hydroxyphenyl)-5,6,6a,7,9,10-hexahydro-8H-pyrazino[1′,2′:4,5]pyrazino[2,3-c]pyridazin-8-yl)methyl)piperidin-1-yl)isoindoline-1,3-dione] | < 0.01 | 75 to 85 | 0.01 to 0.1 | 50 to 75 | 
3 | CC1CC(CN2CCN3c4cc(-c5ccccc5O)nnc4NC[C@H]3C2)CCN1CC1CCN(c2ccc3c(c2)C(=O)N(C2CCC(=O)NC2=O)C3=O)CC1 (stereo partly drawn) [Example 162, 2-(2,6-dioxopiperidin-3-yl)-5-[4-[[4-[[(10S)-4-(2-hydroxyphenyl)-1,5,6,8,12-pentazatricyclo[8.4.0.02,7]tetradeca-2,4,6-trien-12-yl]methyl]-2-methylpiperidine-1-yl]methyl]piperidin-1-yl] isoindole-1,3-dione] | < 0.01 | > 85 | < 0.01 | > 85 | 
4 | O=C1CCC(N2C(=O)c3ccc(N4CCC(CN5CCC(F)(CN6CCN7c8cc(-c9ccccc9O)nnc8NC[C@H]7C6)CC5)CC4)cc3C2=O)C(=O)N1 (stereo partly drawn) [Example 175, 2-(2,6-dioxopiperidin-3-yl)-5-[4-[[4-fluoro-4-[[(10S)-4-(2-hydroxyphenyl)-1,5,6,8,12-pentazatricyclo[8.4.0.02,7]tetradeca-2,4,6-trien-12-yl]methyl]piperidin-1-yl]methyl]piperidin-1-yl]isoindole-1,3-dione] | < 0.01 | > 85 | < 0.01 | > 85 | 
5 | O=C1CCC(N2C(=O)c3cc(F)c(N4CCC(CN5C[C@@H]6[C@H](C5)[C@H]6CN5CCN6c7cc(-c8ccccc8O)nnc7NC[C@H]6C5)CC4)cc3C2=O)C(=O)N1 (stereo partly drawn) [Example 173, 2-(2,6-dioxopiperidin-3-yl)-5-fluoro-6-[4-[[(1S,5R)-6-[[(10S)-4-(2-hydroxyphenyl)-1,5,6,8,12-pentazatricyclo[8.4.0.02,7]tetradeca-2,4,6-trien-12-yl]methyl]-3-azabicyclo[3.1.0]hexan-3-yl]methyl]piperidin-1-yl]isoindole-1,3-dione] | < 0.01 | 75 to 85 | 0.01 to 0.1 | 50 to 75 | 
6 | O=C1CCC(N2C(=O)c3ccc(N4CCC(CN5C6COCC5CC(CN5CCN7c8cc(-c9ccccc9O)nnc8NC[C@H]7C5)C6)CC4)cc3C2=O)C(=O)N1 (stereo partly drawn) [Example 133, 2-(2,6-dioxopiperidin-3-yl)-5-(4-((7-(((S)-2-(2-hydroxyphenyl)-5,6,6a,7,9,10-hexahydro-8H-pyrazino[1′,2′:4,5]pyrazino[2,3-c]pyridazin-8-yl)methyl)-3-oxa-9-azabicyclo[3.3.1]nonan-9-yl)methyl)piperidin-1-yl)isoindoline-1,3-dione] | < 0.01 | 50 to 75 | < 0.01 | 50 to 75 | 
7 | O=C1CCC(N2C(=O)c3ccc(N4CCC(CN5CCC(CN6CCN7c8cc(-c9ccccc9O)nnc8NC[C@H]7C6)C5)CC4)cc3C2=O)C(=O)N1 (stereo partly drawn) [Example 33, 2-(2,6-dioxopiperidin-3-yl)-5-(4-((3-(((S)-2-(2-hydroxyphenyl)-5,6,6a,7,9,10-hexahydro-8H-pyrazino[1′,2′:4,5]pyrazino[2,3-c]pyridazin-8-yl)methyl)pyrrolidin-1-yl)methyl)piperidin-1-yl)isoindoline-1,3-dione] | < 0.01 | > 85 | < 0.01 | 75 to 85 | 
8 | O=C1CCC(N2C(=O)c3ccc(N4CCC(N5CCN6c7cc(-c8ccccc8O)nnc7NC[C@H]6C5)C4)cc3C2=O)C(=O)N1 (stereo partly drawn) [Example 156, 2-(2,6-dioxopiperidin-3-yl)-5-(3-((S)-2-(2-hydroxyphenyl)-5,6,6a,7,9,10-hexahydro-8H-pyrazino[1′,2′:4,5]pyrazino[2,3-c]pyridazin-8-yl)pyrrolidin-1-yl)isoindoline-1,3-dione] | 0.01 to 0.1 | 75 to 85 | 0.01 to 0.1 | 50 to 75 | 
9 | O=C1CCC(N2Cc3cc(OCCN4CCC(N5CCN6c7cc(-c8ccccc8O)nnc7NC[C@H]6C5)C4)ccc3C2=O)C(=O)N1 (stereo partly drawn) [Example 256, 3-(5-(2-(3-((S)-2-(2-hydroxyphenyl)-5,6,6a,7,9,10-hexahydro-8H-pyrazino[1′,2′:4,5]pyrazino[2,3-c]pyridazin-8-yl)pyrrolidin-1-yl)ethoxy)-1-oxoisoindolin-2-yl)piperidine-2,6-dione] | 0.01 to 0.1 | 50 to 75 | 0.01 to 0.1 | 50 to 75 | 
10 | O=C1CCC(N2C(=O)c3ccc(N4CCC(CN5CCC(NC(=O)N6CCN7c8cc(-c9ccccc9O)nnc8NC[C@H]7C6)CC5)CC4)cc3C2=O)C(=O)N1 (stereo partly drawn) [Example 80, (6aS)-N-(1-((1-(2-(2,6-dioxopiperidin-3-yl)-1,3-dioxoisoindolin-5-yl)piperidin-4-yl)methyl)piperidin-4-yl)-2-(2-hydroxyphenyl)-5,6,6a,7,9,10-hexahydro-8H-pyrazino[1′,2′:4,5]pyrazino[2,3-c]pyridazine-8-carboxamide] | < 0.01 | > 85 | < 0.01 | > 85 | 
11 | CC1CN(CC2CCN(c3cc4c(cc3F)C(=O)N(C3CCC(=O)NC3=O)C4=O)CC2)CCC1CN1CCN2c3cc(-c4ccccc4O)nnc3NC[C@H]2C1 (stereo partly drawn) [Example 165, 2-(2,6-dioxopiperidin-3-yl)-5-fluoro-6-[4-[[4-[[(10S)-4-(2-hydroxyphenyl)-1,5,6,8,12-pentazatricyclo[8.4.0.02,7]tetradeca-2,4,6-trien-12-yl]methyl]-3-methylpiperidin-1-yl]methyl]piperidin-1-yl] isoindole-1,3-dione] | < 0.01 | 75 to 85 | < 0.01 | 75 to 85 | 
12 | O=C1CCC(N2C(=O)c3ccc(N4CCC5(CC4)CC(CN4CCC(CN6CCN7c8cc(-c9ccccc9O)nnc8NC[C@H]7C6)CC4)C5)cc3C2=O)C(=O)N1 (stereo partly drawn) [Example 150, 2-(2,6-dioxopiperidin-3-yl)-5-(2-((4-(((S)-2-(2-hydroxyphenyl)-5,6,6a,7,9,10-hexahydro-8H-pyrazino[1′,2′:4,5]pyrazino[2,3-c]pyridazin-8-yl)methyl)piperidin-1-yl)methyl)-7-azaspiro[3.5]nonan-7-yl)isoindoline-1,3-dione] | < 0.01 | > 85 | < 0.01 | > 85 | 
13 | CC1CN(CC2CCN(c3ccc4c(c3)C(=O)N(C3CCC(=O)NC3=O)C4)CC2)CCN1C(=O)N1CCN2c3cc(-c4ccccc4O)nnc3NC[C@H]2C1 (stereo partly drawn) [Example 104, 3-(6-(4-((4-((S)-2-(2-hydroxyphenyl)-6,6a,7,8,9,10-hexahydro-5H-pyrazino[1′,2′:4,5]pyrazino[2,3-c]pyridazine-8-carbonyl)-3-methylpiperazin-1-yl)methyl)piperidin-1-yl)-1-oxoisoindolin-2-yl)piperidine-2,6-dione] | < 0.01 | > 85 | < 0.01 | 75 to 85 | 
14 | O=C1CCC(N2C(=O)c3ccc(N4CC[C@H](CN5C[C@@H]6[C@H](C5)[C@H]6CN5CCN6c7cc(-c8cc(F)ccc8O)nnc7NC[C@H]6C5)[C@@H](F)C4)cc3C2=O)C(=O)N1 (stereo partly drawn) [Example 277, 2-(2,6-dioxopiperidin-3-yl)-5-((3R,4R)-3-fluoro-4-(((1R,5S,6R)-6-(((S)-2-(5-fluoro-2-hydroxyphenyl)-5,6,6a,7,9,10-hexahydro-8H-pyrazino[1′,2′:4,5]pyrazino[2,3-c]pyridazin-8-yl)methyl)-3-azabicyclo[3.1.0]hexan-3-yl)methyl)piperidin-1-yl)isoindoline-1,3-dione] | < 0.01 | > 85 | < 0.01 |  | C (C=50%<Dmax<=75%)
15 | O=C1CCC(N2C(=O)c3ccc(N4C[C@@H]5[C@@H](CN6CCC(CN7CCN8c9cc(-c%10ccccc%10O)nnc9NC[C@H]8C7)CC6)[C@@H]5C4)cc3C2=O)C(=O)N1 (stereo partly drawn) [Example 154, 2-(2,6-dioxopiperidin-3-yl)-5-((1R,5S,6s)-6-((4-(((S)-2-(2-hydroxyphenyl)-5,6,6a,7,9,10-hexahydro-8H-pyrazino[1′,2′:4,5]pyrazino[2,3-c]pyridazin-8-yl)methyl)piperidin-1-yl)methyl)-3-azabicyclo[3.1.0]hexan-3-yl)isoindoline-1,3-dione] | < 0.01 | 50 to 75 | < 0.01 | 50 to 75 | 
16 | CN(C(=O)N1CCN2c3cc(-c4ccccc4O)nnc3NC[C@H]2C1)C1CCN(CC2CCN(c3ccc4c(c3)C(=O)N(C3CCC(=O)NC3=O)C4=O)CC2)CC1 (stereo partly drawn) [Example 138, (6aS)-N-(1-((1-(2-(2,6-dioxopiperidin-3-yl)-1,3-dioxoisoindolin-5-yl)piperidin-4-yl)methyl)piperidin-4-yl)-2-(2-hydroxyphenyl)-N-methyl-5,6,6a,7,9,10-hexahydro-8H-pyrazino[1′,2′:4,5]pyrazino[2,3-c]pyridazine-8-carboxamide] | < 0.01 | > 85 | < 0.01 | > 85 | 
